Laboratory results as given in paper PMC10977697 (PLOS ONE, 2024).
Where no end group is shown, it is not given here.

Legend:
Lgr5ECD-Fc = format: binding, human; conditions: ratio of signal for target protein over BSA background
ApoL1 = assay: Spot phage ELISA, ApoL1; format: binding, human; conditions: ratio of signal for target protein over BSA background

Substance | S/N (Lgr5ECD-Fc) | S/N (ApoL1)
GCASGYWWRMWFCKQDSDCLAGCVCGPNGFCG (also: bicyclic or more (positions not given here)) [Lgr5ECD-Fc EET I-II 15] | 14.1 | –
GCAVYQVYCKQDSDCLAGCVCAVKFHCG (also: bicyclic or more (positions not given here)) [Lgr5ECD-Fc EET I-II 12] | 21.6 | –
GCGFWWKYWFCKQDSDCLAGCVCGPNGFCG (also: bicyclic or more (positions not given here)) [Lgr5ECD-Fc EET I-II 20] | 6.1 | –
GCGFWYMQWFCKQDSDCLAGCVCDPMGNCG (also: bicyclic or more (positions not given here)) [Lgr5ECD-Fc EET I-II 6] | 36.2 | –
GCGWWYRQWFCKQDSDCLAGCVCLETPECG (also: bicyclic or more (positions not given here)) [Lgr5ECD-Fc EET I-II 4] | 40.2 | –
GCGYWFYEWFCKQDSDCLAGCVCDPNGFCG (also: bicyclic or more (positions not given here)) [Lgr5ECD-Fc EET I-II 11] | 21.7 | –
GCGYWWKKWFCKQDSDCLAGCVCGPNSFCG (also: bicyclic or more (positions not given here)) [Lgr5ECD-Fc EET I-II 9] | 29.2 | –
GCGYWWKQWFCKQDSDCLAGCVCGPNGFCG (also: bicyclic or more (positions not given here)) [Lgr5ECD-Fc EET I-II 10] | 25.7 | –
GCGYWWRLWFCKQDSDCLAGCVCGPNGSCG (also: bicyclic or more (positions not given here)) [Lgr5ECD-Fc EET I-II 14] | 15.3 | –
GCGYWWRTWFCKQDSDCLAGCVCGPNGFCG (also: bicyclic or more (positions not given here)) [Lgr5ECD-Fc EET I-II 13] | 17.1 | –
GCGYWWVQWFCKQDSDCLAGCVCGPNGFCD (also: bicyclic or more (positions not given here)) [Lgr5ECD-Fc EET I-II 17] | 10.3 | –
GCGYWYKQWFCKQDSDCLAGCVCGPNGFCG (also: bicyclic or more (positions not given here)) [Lgr5ECD-Fc EET I-II 8] | 32.0 | –
GCGYWYLEWFCKQDSDCLAGCVCGPNGFCG (also: bicyclic or more (positions not given here)) [Lgr5ECD-Fc EET I-II 18] | 9.9 | –
GCGYWYRIWFCKQDSDCLAGCVCGPNGFCG (also: bicyclic or more (positions not given here)) [Lgr5ECD-Fc EET I-II 3] | 43.5 | –
GCGYWYRVWFCKQDSDCLAGCVCQEPGPCG (also: bicyclic or more (positions not given here)) [Lgr5ECD-Fc EET I-II 2] | 44.3 | –
GCHEGYWWRQWFCKQDSDCLAGCVCGPNGFCG (also: bicyclic or more (positions not given here)) [Lgr5ECD-Fc EET I-II 16] | 11.5 | –
GCKFKHWYCKQDSDCLAGCVCCPPNHYG [ApoL1 EET I-II 11] | – | 41.1
GCKFKRHMCKQDSDCLAGCVCTVKQNCG (also: bicyclic or more (positions not given here)) [ApoL1 EET I-II 41] | – | 8.3
GCKFKRWTCKQDSDCLAGCVCEQPGMCG (also: bicyclic or more (positions not given here)) [ApoL1 EET I-II 19] | – | 37.0

Substance | S/N (Lgr5ECD-Fc) | S/N (ApoL1)
GCKFKSFTCKQDSDCLAGCVCWDQDTCG (also: bicyclic or more (positions not given here)) [ApoL1 EET I-II 7] | – | 44.3
GCKFKWHFCKQDSDCLAGCVCQPHETCG (also: bicyclic or more (positions not given here)) [ApoL1 EET I-II 36] | – | 12.4
GCKFMNWKCKQDSDCLAGCVCTENEPCG (also: bicyclic or more (positions not given here)) [ApoL1 EET I-II 2] | – | 53.2
GCKFRLWFCKQDSYCLPGCVCGPNGFCG (also: bicyclic or more (positions not given here)) [ApoL1 EET I-II 42] | – | 7.2
GCKFRLWHCKQDSDCLAGCVCTAQPDCG (also: bicyclic or more (positions not given here)) [ApoL1 EET I-II 47] | – | 3.6
GCKFRNWLCKQDSDCLAGCVCPWDTHCG (also: bicyclic or more (positions not given here)) [ApoL1 EET I-II 43] | – | 6.6
GCKFRRWKCKQDSDCLAGCVCDPQGPCG (also: bicyclic or more (positions not given here)) [ApoL1 EET I-II 39] | – | 9.9
GCKFWFWRLCKQDSDCLAGCVCAGSPPCG (also: bicyclic or more (positions not given here)) [ApoL1 EET I-II 35] | – | 14.1
GCKFWLHRYKQDSDCLAGCVCGPNVFG [ApoL1 EET I-II 4] | – | 47.1
GCKFWSRFCKQDSDCLAGCVCKNTDHCG (also: bicyclic or more (positions not given here)) [ApoL1 EET I-II 6] | – | 44.8
GCKMKKYMCKQDSDCLAGCVCHQQSKCG (also: bicyclic or more (positions not given here)) [ApoL1 EET I-II 40] | – | 8.9
GCKYKCKQDSDCLAGCVCQQQGGCG (also: bicyclic or more (positions not given here)) [ApoL1 EET I-II 14] | – | 40.2
GCLFKKAMGFCKQDSDCLAGCVCREMSHCG (also: bicyclic or more (positions not given here)) [ApoL1 EET I-II 3] | – | 52.4
GCLFKQEMGTCKQDSDCLAGCVCEFQQKCG (also: bicyclic or more (positions not given here)) [ApoL1 EET I-II 16] | – | 40.2
GCLFKRHFCKQDSDCLAGCVCVDQFPCG (also: bicyclic or more (positions not given here)) [ApoL1 EET I-II 21] | – | 35.5
GCLFRNLRMACKQDSDCLAGCVCGPNGFCG (also: bicyclic or more (positions not given here)) [Lgr5ECD-Fc EET I-II 24] | 13.9 | –
GCLFRRNFCKQDSDCLAGCVCEPFPECG (also: bicyclic or more (positions not given here)) [ApoL1 EET I-II 31] | – | 17.5
GCLYLGWLCKQDSDCLAGCVCDYFWYCVHqS (bicyclic or more) [Lgr5ECD-Fc EET I-II 25] | 19.5 | –
GCMFKAHWCKQDSDCLAGCVCHRSALCG (also: bicyclic or more (positions not given here)) [ApoL1 EET I-II 12] | – | 41.1

Substance | S/N (Lgr5ECD-Fc) | S/N (ApoL1)
GCMFKQRHCKQDSDCLAGCVCSQGQPCG (also: bicyclic or more (positions not given here)) [ApoL1 EET I-II 5] | – | 47.1
GCMFKRYFCKQDSDCLAGCVCPHDDQCG (also: bicyclic or more (positions not given here)) [ApoL1 EET I-II 34] | – | 14.2
GCMFLRHFNRCKQDSDCLAGCVCPHIPDCG (also: bicyclic or more (positions not given here)) [ApoL1 EET I-II 26] | – | 24.0
GCMFQMHFCKQDSDCLAGCVCGMSDCCG [ApoL1 EET I-II 27] | – | 23.7
GCMNSYWYNQWFCKQDSDCLAGCVCGPNGFCG (also: bicyclic or more (positions not given here)) [Lgr5ECD-Fc EET I-II 1] | 47.1 | –
GCNRSYWFRQWFCKQDSDCLAGCVCGPNGFCG (also: bicyclic or more (positions not given here)) [Lgr5ECD-Fc EET I-II 22] | 4.7 | –
GCQQGYWYWQWFCKQDSDCLAGCVCGPNGFCG (also: bicyclic or more (positions not given here)) [Lgr5ECD-Fc EET I-II 7] | 33.7 | –
GCRFKRHKCKQDSDCLAGCVCPEMSTCG (also: bicyclic or more (positions not given here)) [ApoL1 EET I-II 15] | – | 40.2
GCRFMSHMRKRECKQDSDCLAGCVCDYQTACG (also: bicyclic or more (positions not given here)) [ApoL1 EET I-II 1] | – | 70.0
GCRFREMFYKVTCKQDSDCLAGCVCSHEANCG (also: bicyclic or more (positions not given here)) [ApoL1 EET I-II 8] | – | 43.8
GCRFRLWAMKSHCKQDSDCLAGCVCSDYSDCG (also: bicyclic or more (positions not given here)) [ApoL1 EET I-II 13] | – | 40.4
GCRFRQHWCKQDSDCLAGCVCLEQPECG (also: bicyclic or more (positions not given here)) [ApoL1 EET I-II 24] | – | 30.3
GCRFWQWRCKQDSDCLAGCVCGWDRECG (also: bicyclic or more (positions not given here)) [ApoL1 EET I-II 32] | – | 17.1
GCRHGYWFHYWFCKQDSDCLAGCVCGPNGFCG (also: bicyclic or more (positions not given here)) [Lgr5ECD-Fc EET I-II 23] | 3.9 | –
GCSWKCKQDSDCLAGCVCKMSQQCG (also: bicyclic or more (positions not given here)) [ApoL1 EET I-II 45] | – | 4.7
GCSYWWRVWFCKQDSDCLAGCVCGPNGFCG (also: bicyclic or more (positions not given here)) [Lgr5ECD-Fc EET I-II 19] | 7.2 | –
GCTSNFWYKQWFCKQDSDCLAGCVCGPNGFCG (also: bicyclic or more (positions not given here)) [Lgr5ECD-Fc EET I-II 5] | 39.0 | –
GCYYKCKQDSDCLAGCVCRTSNMCG (also: bicyclic or more (positions not given here)) [ApoL1 EET I-II 17] | – | 39.0
GPTQSPFGQCGGIGYSGPTVCASGTTCQVLRPNFSWCLPGAS (also: bicyclic or more (positions not given here)) [ApoL1 CBD 1] | – | 21.6
